System: liver
Test: Detection of indocyanine green across SWIR wavelengths in vivo (hepatobiliary clearance)
Settings: mouse, intravenous 1.7 mg/kg, SWIR fluorescence detection
Experimental: When injected into a living system, indocyanine green is metabolized by the liver and excreted by the liver and bile ducts by a process called hepatobiliary clearance. This process was observed, noninvasively, by injecting a solution of indocyanine green intravenously into a mouse and using an SWIR imaging system as described herein to observe the fluorescence of indocyanine green. The dye was injected at a dose of 1.7 mg/kg which is below the maximum recommended dose of indocyanine green in humans. […] Despite the fact that 1500 nm is far from the peak emission of indocyanine green, there is sufficient emission intensity from the tail of the emission peak in this wavelength region to obtain a SWIR fluorescence image. Separately, hepatobiliary excretion of ICG into the small intestine in a mouse was also imaged using a near video rate imaging of 19.7 frames per second using a 1200 nm long-pass filter, which enabled capturing the peristaltic movements of the small intestine. Although the frame rate was slower, 2.0 frames per second, it was possible to image the ICG clearance using a 1500 nm long-pass filter, capturing wavelengths between roughly 1500 and 1620 nm.

accumulation in the liver: observed
Compound: CC1(C)C(/C=C/C=C/C=C/C=C2\N(CCCCS(=O)(=O)O)c3ccc4ccccc4c3C2(C)C)=[N+](CCCCS(=O)(=O)[O-])c2ccc3ccccc3c21 [ICG, indocyanine green]
